Patent US12630538B2, “Anti-viral compounds” (Aligos Therapeutics, Inc., priority 2022, dated 2026)

What was measured:
SARS-Cov-2 3CLpro = molecular target: T1, SARS-Cov-2 3CLpro (Severe acute respiratory syndrome coronavirus 2, UniProt P0DTD1); experiment: SARS-Cov-2 3CLpro and HRV3C duplex assay (SAMDI-MS): 3CLpro; format: biochemical; settings: 30 mins preincubation
T1 construct: 3CLpro and HRV3C was added using a Multidrop Combi

HRV3C = molecular target: T2, HRV3C (Human rhinovirus 14, UniProt P03303); experiment: SARS-Cov-2 3CLpro and HRV3C duplex assay (SAMDI-MS): HRV3C; format: biochemical; settings: 30 mins preincubation, read-out: HRV (IC50)
T2 construct: 3CLpro and HRV3C was added using a Multidrop Combi

[1] = tested on: human beta-coronavirus OC43; experiment: OC43 coronavirus antiviral assay in HeLa cells; format: cell-based; settings: Betacoronavirus 1, 144 h, 6 days at 33° C., viral cytopathic effect, cell-titer-glo
Method: (§1) The human beta-coronavirus OC43 was purchased from ATCC (Manassas, VA) and propagated using HCT-8 human colorectal epithelial cells (ATCC). HeLa human cervical epithelial cells (ATCC) were used as susceptible host cell lines and were cultured using EMEM media, supplemented with 10% fetal bovine serum (FBS), 1% (v/v) penicillin/streptomycin (P/S), 1% (v/v) HEPES and 1% (v/v) cellgro Glutagro™ supplement (all Corning, Manassas, VA) at 37° C. For the OC43 antiviral assay, 1.5×10^4 HeLa cells per well were plated in 100 μL complete media in white 96-well plates with clear bottoms at 37° C. for up to 24 h to facilitate attachment and allow cells to recover from seeding stresses. Next day, the cell culture medium was removed. […] 100 μL of OC43 virus stock was diluted to a concentration known to produce optimal cytopathic effect, inducing 80-90% reduction in cell viability. 96-well plates were incubated for 6 (HeLa) days at 33° C.; each plate contains uninfected control wells as well as virus-infected wells that were not treated with compound. Cytotoxicity plates without the addition of OC43 virus were carried out in parallel. At the end of the incubation period, 100 μL cell culture supernatant was replaced with 100 μL cell-titer-glo reagent (Promega, Madison, WI) and incubated for at least 10 min at rt prior to measuring luminescence. Luminescence was measured on a Perkin Elmer (Waltham, MA) Envision plate reader. Antiviral % inhibition was calculated as follows: [(Compound treated cells infected sample)−(no compound infected control)]/[(Uninfected control)−(no compound infected control)]*100; Using GraphPad (San Diego, CA) prism software version 8.3.1, the antiviral dose-response plot was generated as a sigmoidal fit, log(inhibitor) vs response-variable slope (four parameters) model and the EC50 was calculated which is the predicted compound concentration corresponding to a 50% inhibition of the viral cytopathic effect.

[2] = Cytotoxicity in HeLa cells without OC43 virus; format: cell-based; settings: human, cell-titer-glo
Method: as §1

[3] = tested on: SARS-CoV-2 B.1.1.7 lineage; experiment: microbe, parasite or virus in culture; format: cell-based; settings: Severe acute respiratory syndrome coronavirus 2, 96 h; read-out: A549-dual_ACE2_TMPRSS2 (EC50)
human cathepsin L = molecular target: T3, human cathepsin L (Homo sapiens, UniProt P07711); experiment: Cathepsin L assay; format: biochemical; settings: 10 pM human cathepsin L, substrate Z-FR-AMC 2 μM
T3 construct: purchased R&D Systems
Method: For the cathepsin L assay, 10 pM of human cathepsin L (R&D Systems; Minneapolis, MN) was preincubated for 30 mins with test compounds. Reactions were initiated by the addition of a peptide substrate Z-FR-AMC (final concentration 2 μM, Anaspec; Fremont, CA). Fluorescence was measured at 2-minute intervals for 30 mins using a 355/460 excitation/emission filter module on an Envision plate reader (Perkin Elmer; Waltham, MA). The IC50 values were calculated for each assay by fitting the curves using a four-parameter equation in GraphPad Prism.

in vitro = settings: human, A549-dual ACE2 TMPRSS2 cells without virus
SARS-CoV-2 = settings: cited from earlier work
3CLpro = 3CLpro (Severe acute respiratory syndrome coronavirus 2, UniProt P0DTD1); settings: cited from earlier work

T2 sequence (P03303 1538-1719): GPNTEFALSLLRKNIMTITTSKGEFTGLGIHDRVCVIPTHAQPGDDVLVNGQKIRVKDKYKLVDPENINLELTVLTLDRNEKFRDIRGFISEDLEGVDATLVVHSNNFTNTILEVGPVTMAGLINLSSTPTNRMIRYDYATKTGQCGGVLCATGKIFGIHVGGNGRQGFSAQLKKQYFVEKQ
T3 sequence (P07711 114-333): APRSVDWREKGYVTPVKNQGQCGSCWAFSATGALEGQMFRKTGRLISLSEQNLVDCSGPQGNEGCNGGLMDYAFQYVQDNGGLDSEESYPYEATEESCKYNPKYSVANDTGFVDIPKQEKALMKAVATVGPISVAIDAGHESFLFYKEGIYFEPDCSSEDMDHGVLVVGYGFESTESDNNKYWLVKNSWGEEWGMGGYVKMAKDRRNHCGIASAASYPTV

| Compound | IC50 (SARS-Cov-2 3CLpro) [µM] | IC50 (HRV3C) [µM] | EC50 [1] [µM] | CC50 at 6 days [2] [µM] | EC50 [3] [µM] | IC50 (human cathepsin L) [µM] | CC50 (in vitro) [µM] | antiviral effect when TMPRSS2 was expressed (SARS-CoV-2; A549-ACE2 expressing TMPRSS2) | inhibition of SARS-CoV-2 (SARS-CoV-2; VeroE6, A549-ACE2 and/or HeLa-ACE2) | inhibitory effect on the 3CLpro (3CLpro) |
| --- | --- | --- | --- | --- | --- | --- | --- | --- | --- | --- |
| COC(=O)N[C@H](C(=O)N1C[C@@H]2[C@H]3C[C@@H]([C@@H]2[C@H]1C(=O)N[C@H](C#N)C[C@@H]1CCNC1=O)[C@H](F)C3)C(C)(C)C [Compound 2, methyl N-[(2S)-1-[(1S,2R,3S,6R,7S,9R)-3-{[(1S)-1-cyano-2-[(3S)-2-oxopyrrolidin-3-yl]ethyl]carbamoyl}-9-fluoro-4-azatricyclo[5.2.1.0^{2,6}]decan-4-yl]-3,3-dimethyl-1-oxobutan-2-yl]carbamate] | < 0.02 | > 0.5 | < 0.1 | > 100 | 0.1 to 1 | ≥ 10 | > 1 |  |  |  |
| COC(=O)N[C@H](C(=O)N1C[C@H]2[C@@H]([C@H]1C(=O)N[C@H](C#N)C[C@@H]1CCNC1=O)[C@H]1C=C[C@@H]2C1)C(C)(C)C [Compound 1, methyl ((S)-1-((1S,3aR,4S,7R,7aS)-1-(((S)-1-cyano-2-((S)-2-oxopyrrolidin-3-yl)ethyl)carbamoyl)-1,3,3a,4,7,7a-hexahydro-2H-4,7-methanoisoindol-2-yl)-3,3-dimethyl-1-oxobutan-2-yl)carbamate] | < 0.02 | > 0.5 | < 0.1 | > 100 | < 0.1 | ≥ 10 | > 1 |  |  |  |
| CC(C)(C)[C@H](NC(=O)OC1CC1)C(=O)N1C[C@@H]2[C@H]3C[C@@H]([C@@H]2[C@H]1C(=O)N[C@H](C#N)C[C@@H]1CCNC1=O)[C@H](F)C3 [Compound 3, cyclopropyl ((S)-1-((1S,3aR,4S,6R,7S,7aR)-1-(((S)-1-cyano-2-((S)-2-oxopyrrolidin-3-yl)ethyl)carbamoyl)-6-fluorooctahydro-2H-4,7-methanoisoindol-2-yl)-3,3-dimethyl-1-oxobutan-2-yl)carbamate] | < 0.02 | > 0.5 | < 0.1 | > 100 | < 0.1 | ≥ 10 | > 1 |  |  |  |
| CN1CCN(C(=O)N[C@@H](Cc2ccccc2)C(=O)N[C@H](/C=C/S(=O)(=O)c2ccccc2)CCc2ccccc2)CC1 [Compound K117777] |  |  |  |  |  |  |  | abolished | potent inhibition | lacks an inhibitory effect |
